Consider 2 molecules from patent US20120094949A1, “HISTONE MODIFICATION PATTERNS FOR CLINICAL DIAGNOSIS AND PROGNOSIS OF CANCER” (The Regents of the University of California, priority 2009, published 2012).

In test [1] the test system is pancreatic adenocarcinoma. Description: Kaplan-Meier survival analysis comparing adjuvant treatments within histone groups, RTOG 9704 TMA. It counts as in vivo, human. The note with it: adjuvant chemotherapy; for overall or disease-free survival, gemcitabine or 5-FU: each of the high level histone subgroups. The method, then:
METHODS: Tissue microarrays (TMAs) from two large pancreatic adenocarcinoma cohorts were examined, including a 195 patient cohort from RTOG 9704, a multi-center phase III randomized treatment trial comparing adjuvant gemcitabine versus 5-fluorouracil (5-FU), and a 140 patient cohort of Stage I or II cancer from UCLA Medical Center. Immunohistochemistry for three histone modifications (H3K4me2, H3K9me2 and H3K18ac) was performed. Positive tumor cell staining of the histone modifications was used to classify patients into low and high staining groups, which were related to clinicopathologic parameters and clinical outcome measures.
Pancreatic adenocarcinoma patients and tissue microarrays. The RTOG 9704 pancreatic cancer tissue microarray (TMA) consisted of 229 cases of pancreatic adenocarcinoma obtained from patients enrolled in RTOG 9704, a phase III randomized post-operative adjuvant treatment trial comparing 5-fluorouracil (5-FU) to gemcitabine before and after chemoradiation (Regine et al., Jama 299:1019-26 (2008)). In RTOG 9704, all patients received adjuvant chemotherapy (5-FU or gemcitabine) for durations of one month before and three months following chemoradiation therapy, which included 5-FU infusion as a radiation sensitizer. Clinicopathologic factors were collected as part of patient enrollment, as were treatment schedules and follow-up clinical information including toxicity, overall survival and disease-free survival. The UCLA Stage I/II pancreatic cancer TMA consisted of 140 cases of AJCC stage I or II pancreatic adenocarcinoma from the UCLA Department of Pathology and Laboratory Medicine archives, representing patients who underwent complete gross resection of tumor at UCLA Medical Center between 1987 and 2005. All work was performed with appropriate institutional review board approvals.
Statistical Analysis. Specific histone cut-offs were previously shown to predict survival in subsets of patients with multiple types of carcinoma, including prostate, lung and kidney (Seligson et al., Am J Pathol 174:1619-1628 (2009); Seligson et al., Nature 435:1262-6 (2005)). In order to standardize and apply these same cut-offs in both pancreatic cancer TMAs, each tumor was assigned a percent rank value (quantile) based on median percent of cells staining relative to its TMA dataset using the SAS system procedure RANK with TIES=LOW option, which assigns the smallest of the corresponding ranks for the ties data values. Each tumor was then assigned into a low or high level staining group based on its percent rank, including H3K4me2 (<60 vs. ≧60 percent rank), H3K9me2 (<30 vs. ≧30 percent rank for the RTOG TMA or <25 vs. ≧25 percent rank for the UCLA Stage I/II TMA) and H3K18ac (<35 vs. ≧35 percent rank). Survival estimates were generated and visualized using the Kaplan-Meier method and survival curves were compared using the log-rank test. Multivariate Cox proportional hazards models were used to test statistical independence and significance of multiple predictors. Overall survival time was measured from the date of randomization (RTOG 9704 TMA) or date of surgery (UCLA Stage I/II TMA) to the date of death due to any cause or last follow-up. Disease-free survival time was only determined for RTOG 9704 and was measured from the date of randomization to the date of first disease-free failure event defined as local or regional disease relapse, distant disease, second primary or death due to any cause. […]

The test system of test [2] is pancreatic adenocarcinoma. The note with it: setting of fluorouracil-based chemoradiation; resected pancreatic cancer; cited from earlier work.

For the molecule `O=c1[nH]cc(F)c(=O)[nH]1` [5-FU, 5-fluorouracil], in test [1] (data not shown), the “overall or disease-free survival, gemcitabine or 5-FU” value is recorded as “no significant differences”. Besides, the “overall survival, 5-FU versus gemcitabine” value in test [1] (low H3K4me2 subgroup, data not shown) is reported as “non-significant trend towards worse overall survival”. Besides, the “disease-free survival, 5-FU versus gemcitabine” value was “worse disease-free survival” in test [1] (low H3K4me2 subgroup, log rank test p=0.014) and “worse disease-free survival” in test [1] (low H3K18ac subgroup, log rank test p=0.015).

On to `Nc1ccn([C@@H]2O[C@H](CO)[C@@H](O)C2(F)F)c(=O)n1` [gemcitabine], for which the “overall or disease-free survival, gemcitabine or 5-FU” value in test [1] (data not shown) is given as “no significant differences”. The “survival benefit of adjuvant gemcitabine over adjuvant 5-FU” value in test [2] was “non-statistically significant survival benefit”.
